Data reported in patent publication US6235748A, “Oxo-substituted compounds, process of making, and compositions and methods for inhibiting parp activity” (Guilford Pharmaceuticals Inc., priority 2000, dated 2001).
“Also recorded” adds a separate entry of the source.

How the values were obtained:
[1] = tested on: focal cerebral ischemia in male Long-Evans rats; assay: Infarct in focal cerebral ischemia: distal MCA cauterization with bilateral temporary CCA occlusion; format: in vivo, rat (Long-Evans); conditions: for cross-sectional infarct area distribution, result in words: FIG. 1; for damaged (infarct) volume: mean±SD
Procedure: (§1) Focal cerebral ischemia was produced by cauterization of the right distal MCA (middle cerebral artery) with bilateral temporary common carotid artery occlusion in male Long-Evans rats for 90 minutes. All procedures performed on the animals were approved by the University Institutional Animal Care and Use Committee of the University of Pennsylvania. A total of 42 rats (weights: 230-340 g) obtained from Charles River were used in this study. The animals fasted overnight with free access to water prior to the surgical procedure.
(§2) Two hours prior to MCA occlusion, varying amounts (control, n=14; 5 mg/kg, n=7; 10 mg/kg, n=7; 20 mg/kg, n=7; and 40 mg/kg, n=7) of the PARP inhibitor compound, 3,4-dihydro-5-[4-(1-piperidinyl)-butoxy]-1(2H)-isoquinolinone ("DPQ"), were dissolved in dimethyl sulfoxide (DMSO) using a sonicator. A volume of 1.28 ml/kg of the resulting solution was injected intraperitoneally into fourteen rats.
(§3) The rats were then anesthetized with halothane (4% for induction and 0.8%-1.2% for the surgical procedure) in a mixture of 70% nitrous oxide and 30% oxygen. The body temperature was monitored by a rectal probe and maintained at 37.5±0.5° C. with a heating blanket regulated by a homeothermic blanket control unit (Harvard Apparatus Limited, Kent, U.K.). A catheter (PE-50) was placed into the tail artery, and arterial pressure was continuously monitored and recorded on a Grass polygraph recorder (Model 7D, Grass Instruments, Quincy, Mass.). Samples for blood gas analysis (arterial pH, PaO2 and PaCO2) were also taken from the tail artery catheter and measured with a blood gas analyzer (ABL 30, Radiometer, Copenhagen, Denmark). Arterial blood samples were obtained 30 minutes after MCA occlusion.
(§4) The head of the animal was positioned in a stereotaxic frame, and a right parietal incision between the right lateral canthus and the external auditory meatus was made. Using a dental drill constantly cooled with saline, a 3 mm burr hole was prepared over the cortex supplied by the right MCA, 4 mm lateral to the sagittal suture and 5 mm caudal to the coronal suture. The dura mater and a thin inner bone layer were kept, care being taken to position the probe over a tissue area devoid of large blood vessels. The flow probe (tip diameter of 1 mm, fiber separation of 0.25 mm) was lowered to the bottom of the cranial burr hole using a micromanipulator. The probe was held stationary by a probe holder secured to the skull with dental cement. The microvascular blood flow in the right parietal cortex was continuously monitored with a laser Doppler flowmeter (FloLab, Moor, Devon, U.K., and Periflux 4001, Perimed, Stockholm, Sweden).
Focal cerebral ischemia was produced by cauterization of the distal portion of the right MCA with bilateral temporary common carotid artery (CCA) occlusion by the procedure of Chen et al., "A Model of Focal Ischemic Stroke in the Rat: Reproducible Extensive Cortical Infarction", Stroke, 17:738-43 (1986) and/or Liu et al., "Polyethylene Glycol-conjugated Superoxide Dismutase and Catalase Reduce Ischemic Brain Injury", Am. J. Physiol., 256:H589-93 (1989), both of which are hereby incorporated by reference.
Specifically, bilateral CCA's were isolated, and loops made from polyethylene (PE-10) catheter were carefully passed around the CCA's for later remote occlusion. The incision made previously for placement of the laser doppler probe was extended to allow observation of the rostral end of the zygomatic arch at the fusion point using a dental drill, and the dura mater overlying the MCA was cut. […] The burr hole was covered with a small piece of Gelform, and the wound was sutured to maintain the brain temperature within the normal or near-normal range.
After 90 minutes of occlusion, the carotid loops were released, the tail arterial catheter was removed, and all of the wounds were sutured. Gentamicin sulfate (10 mg/ml) was topically applied to the wounds to prevent infection. […]

recombinant human PARP = target: T1, recombinant human PARP (Homo sapiens, UniProt P09874); assay: PARP enzyme assay with purified recombinant human PARP, [3H]NAD; format: biochemical; conditions: TABLE VII; 25° C., 15 minutes; read-out: Approximate IC50's
T1 construct: purchased Trevigen (Gaithersburg, Md.)
Procedure: The reaction was initiated by incubating the mixture at 25° C. After 15 minutes' incubation, the reaction was terminated by adding 500 microliters of ice cold 20% (w/v) trichloroacetic acid. The precipitate formed was transferred onto a glass fiber filter (Packard Unifilter-GF/B) and washed three times with ethanol. After the filter was dried, the radioactivity is determined by scintillation counting.

[2] = tested on: ischemia and reperfusion of the heart in rabbits; conditions: cited from earlier work
colitis in rats = conditions: colitis induced by intraluminal trinitrobenzene sulfonic acid in 50% ethanol; cited from earlier work
[3] = tested on: cell viability, glucose metabolism, and DNA synthesis; conditions: cited from earlier work
[4] = tested on: NO-mediated vascular failure in endotoxic shock; conditions: in vivo; cited from earlier work
tumor cells = conditions: synergy: co-treatment with an alkylating drug; cited from earlier work
[5] = Arterial blood gases and mean arterial blood pressure in the focal cerebral ischemia model; format: in vivo, rat (Long-Evans); conditions: for MABP, ischemia: average during occlusion; for MABP, steady state: just prior to occlusion
Procedure: as §1, §2, §3
A "steady state" MABP was taken following completion of the surgical preparation, just prior to occlusion; an "ischemia" MABP was taken as the average MABP during occlusion.

[6] = tested on: right parietal cortex blood flow; assay: Microvascular blood flow in right parietal cortex by laser Doppler flowmetry; format: in vivo, rat (Long-Evans); conditions: for relative blood flow in the right parietal cortex on occlusion: control 20.8±7.7%
Procedure: as §4
Since the blood flow values obtained from the laser doppler were in arbitrary units, only percent changes from the baseline (prior to occlusion) were reported.

T1 sequence (P09874 whole entry): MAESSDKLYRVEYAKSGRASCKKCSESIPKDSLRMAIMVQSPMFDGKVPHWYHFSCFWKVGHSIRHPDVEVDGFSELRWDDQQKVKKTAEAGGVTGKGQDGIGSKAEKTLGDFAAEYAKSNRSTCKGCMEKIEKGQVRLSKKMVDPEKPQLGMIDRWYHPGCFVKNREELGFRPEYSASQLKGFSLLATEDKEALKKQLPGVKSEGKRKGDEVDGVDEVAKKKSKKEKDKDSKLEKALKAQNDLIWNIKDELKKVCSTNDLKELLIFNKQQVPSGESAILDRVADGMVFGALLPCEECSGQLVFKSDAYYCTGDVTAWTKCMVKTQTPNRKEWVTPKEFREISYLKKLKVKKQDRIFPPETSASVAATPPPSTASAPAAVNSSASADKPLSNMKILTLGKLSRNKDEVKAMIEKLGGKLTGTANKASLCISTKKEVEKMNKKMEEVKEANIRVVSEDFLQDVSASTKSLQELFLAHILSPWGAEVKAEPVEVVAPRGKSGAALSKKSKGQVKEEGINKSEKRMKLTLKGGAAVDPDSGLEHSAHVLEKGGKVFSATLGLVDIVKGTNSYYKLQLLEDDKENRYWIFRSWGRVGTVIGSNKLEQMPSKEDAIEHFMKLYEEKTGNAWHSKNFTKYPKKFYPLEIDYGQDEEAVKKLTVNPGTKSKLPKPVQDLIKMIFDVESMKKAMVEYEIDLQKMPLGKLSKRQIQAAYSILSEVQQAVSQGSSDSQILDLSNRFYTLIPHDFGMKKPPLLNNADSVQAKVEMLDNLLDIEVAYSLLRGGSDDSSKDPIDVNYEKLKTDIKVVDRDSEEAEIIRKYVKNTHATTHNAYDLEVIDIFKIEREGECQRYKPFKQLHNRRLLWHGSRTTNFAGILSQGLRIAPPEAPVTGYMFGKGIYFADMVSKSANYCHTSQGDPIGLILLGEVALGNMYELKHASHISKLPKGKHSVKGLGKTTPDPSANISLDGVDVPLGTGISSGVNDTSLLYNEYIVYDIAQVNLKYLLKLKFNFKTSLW

## O=C1NCCc2c(OCCCCN3CCCCC3)cccc21 [3,4-dihydro-5-[4-(1-piperidinyl)-butoxy]-1(2H)-isoquinolinon] [3,4-dihydro-5-[4-(1-piperidinyl)-butoxy]-1(2H)-isoquinolinone]
[1]; 5 mg/kg and 20 mg/kg
  cross-sectional infarct area distribution, result in words: fell approximately halfway between the control and the 10 mg/kg curves
[1]; 40 mg/kg
  infarct volume, result in words: less neuroprotective
  cross-sectional infarct area distribution, result in words: close to the control
[1]; overall / dose comparison
  infarct volume, result in words: U-shaped dose-response curve

## O=c1[nH]c2cc(F)ccc2c2ccccc12
Recombinant human PARP
  IC50: ~200 nM

## NC(=O)c1cccc(N)c1 [3-aminobenzamide]
[2]; 10 mg/kg, single injection one minute before occlusion or one minute before reperfusion
  reduction in infarct size in the heart: 32-42%
Colitis in rats
  effect on colitis, result in words: reduced the inflammatory response and restored the morphology and the energetic status of the distal colon
[3]
  effect on other metabolic processes, result in words: shown to affect cell viability, glucose metabolism, and DNA synthesis

## Oc1cccc2c(O)nccc12 [1,5-dihydroxy-isoquinoline]
[2]; 1 mg/kg
  reduction in infarct size: 38-48%

## NC(=O)c1cccnc1 [nicotinamide]
[4]
  effect on vascular failure in endotoxic shock, result in words: protects against delayed, NO-mediated vascular failure in endotoxic shock

## O=c1[nH]c2ccccc2c2ccccc12 [6(5H)-Phenanthridinone]
Tumor cells
  effect on tumor cells, result in words: reduced proliferation of tumor cells, and a marked synergistic effect when tumor cells are co-treated with this compound and an alkylating drug

## O=C1NCCc2c(OCCCCN3CCCCC3)cccc21 [DPQ, 3,4-dihydro-5-[4-(1-piperidinyl)-butoxy]-1(2H)-isoquinolinone]
[1]; 5 mg/kg i.p. 2 h before and 2 h after MCA occlusion, p<0.001 vs control (165.2±34.0 mm^3)
  damaged (infarct) volume: 106.7±23.2 mm^3
[1]; 10 mg/kg i.p. 2 h before and 2 h after MCA occlusion, p<0.001 vs control (165.2±34.0 mm^3)
  damaged (infarct) volume: 76.4±16.8 mm^3
[1]; 20 mg/kg i.p. 2 h before and 2 h after MCA occlusion, p<0.01 vs control (165.2±34.0 mm^3)
  damaged (infarct) volume: 110.2±42.0 mm^3
[1]; 40 mg/kg
  infarct volume, result in words: no significant difference between the control and the 40 mg/kg-treated group
[1]; 40 mg/kg i.p. 2 h before and 2 h after MCA occlusion, not significant vs control (165.2±34.0 mm^3)
  damaged (infarct) volume: 135.6±44.8 mm^3
[1]; 5, 10 and 20 mg/kg
  damaged volume compared to control, result in words: significant decrease in the damaged volume
[1]; overall / dose comparison
  infarct volume, result in words: significant differences between the 5 mg/kg-treated group and the 10 mg/kg-treated group (p<0.02), and between the 10 mg/kg-treated group and the 40 mg/kg-treated group (p<0.01); also recorded: substantial reduction in infarct volume
[5]; 5 mg/kg-treated group
  PaCO2: 38.0 mm Hg
  PaO2: 126 ± 20 mm Hg
  arterial pH: 7.36
  MABP, steady state: 78 ± 5 mm Hg
[5]; 5 mg/kg-treated group, p < 0.01 vs steady state
  MABP, ischemia: 91 ± 12 mm Hg
[5]; 10 mg/kg-treated group
  PaCO2: 39.3 mm Hg
  PaO2: 125 ± 16 mm Hg
  arterial pH: 7.34
  MABP, steady state: 80 ± 9 mm Hg
[5]; 10 mg/kg-treated group, p < 0.05 vs steady state
  MABP, ischemia: 90 ± 14 mm Hg
[5]; 20 mg/kg-treated group
  PaCO2: 41.3 mm Hg
  PaO2: 122 ± 14 mm Hg
  arterial pH: 7.35
  MABP, steady state: 79 ± 10 mm Hg
[5]; 20 mg/kg-treated group, p < 0.01 vs steady state
  MABP, ischemia: 91 ± 12 mm Hg
[5]; 40 mg/kg-treated group
  PaCO2: 39.5 mm Hg
  PaO2: 137 ± 17 mm Hg
  arterial pH: 7.33
  MABP, steady state: 78 ± 4 mm Hg
[5]; 40 mg/kg-treated group, p < 0.05 vs steady state
  MABP, ischemia: 88 ± 12 mm Hg
[5]; all five groups including control
  MABP, result in words: MABP was significantly elevated following occlusion in all five groups, there were no significant differences in MABP during the occlusion period among the groups
[5]; control and treated groups
  arterial blood gases (PaO2, PaCO2 and pH), result in words: within the physiological range in the control and treated groups with no significant differences in these parameters among the five groups
[6]; 5 mg/kg-treated group (n=7)
  relative blood flow in the right parietal cortex on occlusion: 18.7±7.4 % of the baseline
[6]; 10 mg/kg-treated group (n=7)
  relative blood flow in the right parietal cortex on occlusion: 21.4±7.7 % of the baseline
[6]; 40 mg/kg-treated group (n=7)
  relative blood flow in the right parietal cortex on occlusion: 19.3±11.2 % of the baseline
[6]; control, 5, 10 and 40 mg/kg
  blood flow response to occlusion, result in words: no significant differences in the blood flow response to occlusion among the four groups

## NC(=O)c1ccccc1 [benzamide]
[3]
  effect on other metabolic processes, result in words: shown to affect cell viability, glucose metabolism, and DNA synthesis
